Assay results: ChEMBL document CHEMBL1201862, “PubChem BioAssay data set” (2004)
Each block holds one compound with its values, some of them ahead of it. The source made the active and inactive calls.

Legend:
[1] = target: T1, Beta-2 adrenergic receptor (Homo sapiens, UniProt P07550); assay: Dose response for HTS for Beta-2AR agonists via FAP method from Powderset3.; assay type: functional
Cytochrome P450 3A4 = Cytochrome P450 3A4 (Homo sapiens, UniProt P08684);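 note: CYP3A4 tested as one member of a cytochrome P450 panel screen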
Sequence of Cytochrome P450 3A4 (P08684 whole entry): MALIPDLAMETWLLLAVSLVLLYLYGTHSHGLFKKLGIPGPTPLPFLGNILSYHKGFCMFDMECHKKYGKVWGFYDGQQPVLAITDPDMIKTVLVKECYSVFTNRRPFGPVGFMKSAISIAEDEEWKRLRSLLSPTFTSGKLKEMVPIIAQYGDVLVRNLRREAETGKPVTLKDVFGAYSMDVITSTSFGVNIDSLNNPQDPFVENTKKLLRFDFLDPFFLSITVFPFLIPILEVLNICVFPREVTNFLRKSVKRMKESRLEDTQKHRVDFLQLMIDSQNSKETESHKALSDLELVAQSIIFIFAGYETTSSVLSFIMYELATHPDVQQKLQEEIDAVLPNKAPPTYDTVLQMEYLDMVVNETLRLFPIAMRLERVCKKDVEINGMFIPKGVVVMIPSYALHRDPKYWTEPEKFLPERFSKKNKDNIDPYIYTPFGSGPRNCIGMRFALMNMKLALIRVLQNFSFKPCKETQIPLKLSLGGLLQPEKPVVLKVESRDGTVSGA

[2] = target: T1, Beta-2 adrenergic receptor; assay: ADRB2 activation measured by internalization – cell-based, FAP fluorogen, flow cytometry, cherry pick 1, dose response (AID 588763); assay type: functional
Cytochrome P450 2C19 = Cytochrome P450 2C19 (Homo sapiens, UniProt P33261); assay: Cytochrome panel assay with activity outcomes. Panel member name: p450-cyp2c19 Compounds with AC50 equal or less than 10 uM are considered active; assay type: functional; conditions: read-out: AC50
Sequence of Cytochrome P450 2C19 (P33261 whole entry): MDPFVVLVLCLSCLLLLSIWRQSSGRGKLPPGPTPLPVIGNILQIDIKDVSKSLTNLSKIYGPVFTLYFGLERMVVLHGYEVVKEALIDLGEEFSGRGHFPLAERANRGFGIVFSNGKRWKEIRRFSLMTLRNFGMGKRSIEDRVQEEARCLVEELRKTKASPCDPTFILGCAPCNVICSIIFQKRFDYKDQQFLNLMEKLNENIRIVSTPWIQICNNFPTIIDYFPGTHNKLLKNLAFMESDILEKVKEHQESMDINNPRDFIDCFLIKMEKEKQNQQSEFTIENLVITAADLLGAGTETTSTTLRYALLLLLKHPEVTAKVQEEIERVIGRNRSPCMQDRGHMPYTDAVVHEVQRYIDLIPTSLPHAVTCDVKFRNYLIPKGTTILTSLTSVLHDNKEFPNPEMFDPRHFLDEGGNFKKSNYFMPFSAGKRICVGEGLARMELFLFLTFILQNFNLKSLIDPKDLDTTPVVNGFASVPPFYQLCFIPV

Vero = assay: viability loss in Vero cells – cell-based, plate reader, cherry-pick samples, cytotoxicity control, dose response (AID 687020); assay type: functional; conditions: Chlorocebus sabaeus
[3] = HEK-293T viability loss after treatment – luminescence, T-cell screen hits, cytotoxicity control for TCR NF-kB inhibitor project, dose response (AID 489026); assay type: functional, cell-based;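 note: cells exposed to compound about 14 hours before the viability readout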
A549 = assay: viability loss in A549 cells – cell-based, plate reader, cherry-pick samples, cytotoxicity control, dose response (AID 687028); assay type: functional; conditions: Homo sapiens
[4] = HeLa cell viability loss – 24 h, dry powder, set 2, cytotoxicity control, dose response (AID 651774); assay type: functional, cell-based
[5] = target: Arf-GAP with SH3 domain, ANK repeat and PH domain-containing protein 1 (Homo sapiens, UniProt Q9ULH1); assay type: functional;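 note: biochemical fluorescence polarization dose–response screen measuring inhibition of ASAP1; ASAP1 GAP domain stimulating GTP hydrolysis by truncated human ARF1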
Sequence of Arf-GAP with SH3 domain, ANK repeat and PH domain-containing protein 1 (Q9ULH1 whole entry, the tested form may be a part): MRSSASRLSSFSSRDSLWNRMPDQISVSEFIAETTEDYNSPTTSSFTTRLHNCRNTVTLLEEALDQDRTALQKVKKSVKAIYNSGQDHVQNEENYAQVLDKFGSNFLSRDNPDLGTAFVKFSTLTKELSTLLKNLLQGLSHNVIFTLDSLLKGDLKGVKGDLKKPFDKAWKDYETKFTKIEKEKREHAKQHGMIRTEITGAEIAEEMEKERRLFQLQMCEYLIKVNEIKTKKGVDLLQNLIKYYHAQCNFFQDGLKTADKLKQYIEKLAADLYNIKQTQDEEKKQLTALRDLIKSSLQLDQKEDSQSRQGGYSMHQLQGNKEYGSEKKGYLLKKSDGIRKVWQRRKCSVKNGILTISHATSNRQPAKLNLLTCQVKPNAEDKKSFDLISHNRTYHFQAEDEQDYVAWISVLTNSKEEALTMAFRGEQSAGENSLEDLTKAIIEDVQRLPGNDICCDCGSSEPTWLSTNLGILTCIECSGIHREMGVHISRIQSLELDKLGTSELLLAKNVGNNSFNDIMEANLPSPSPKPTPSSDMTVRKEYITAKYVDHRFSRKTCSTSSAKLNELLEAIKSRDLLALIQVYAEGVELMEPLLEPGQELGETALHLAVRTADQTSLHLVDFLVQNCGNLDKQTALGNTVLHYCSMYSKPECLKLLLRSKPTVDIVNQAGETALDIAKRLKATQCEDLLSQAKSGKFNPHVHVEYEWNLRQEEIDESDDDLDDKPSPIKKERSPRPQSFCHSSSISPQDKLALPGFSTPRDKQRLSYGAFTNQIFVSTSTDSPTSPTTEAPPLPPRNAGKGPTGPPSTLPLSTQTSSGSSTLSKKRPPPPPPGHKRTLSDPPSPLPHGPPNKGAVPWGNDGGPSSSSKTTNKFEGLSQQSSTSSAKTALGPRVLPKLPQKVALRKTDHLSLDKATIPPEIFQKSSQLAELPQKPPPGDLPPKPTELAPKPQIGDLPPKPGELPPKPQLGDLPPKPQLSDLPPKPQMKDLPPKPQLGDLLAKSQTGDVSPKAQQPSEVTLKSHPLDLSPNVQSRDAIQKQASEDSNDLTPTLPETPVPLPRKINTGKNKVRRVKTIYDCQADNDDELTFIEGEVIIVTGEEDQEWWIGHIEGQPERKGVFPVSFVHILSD

[6] = cell viability loss, ATP luminescence – CellTiter-Glo, 24 h, powder samples, set 7, cytotoxicity control for SR-BI HDL uptake inhibitor project, dose response (AID 624026); assay type: functional, cell-based
[7] = target: Scavenger receptor class B member 1 (Mus musculus, UniProt Q61009); assay: mouse SR-BI DiI-HDL transfer blockers – ldlA[mSR-BI] CHO cells, fluorescence plate reader, dry powder, set 9, dose response (AID 623880); assay type: functional, cell-based
Sequence of Scavenger receptor class B member 1 (Q61009 whole entry): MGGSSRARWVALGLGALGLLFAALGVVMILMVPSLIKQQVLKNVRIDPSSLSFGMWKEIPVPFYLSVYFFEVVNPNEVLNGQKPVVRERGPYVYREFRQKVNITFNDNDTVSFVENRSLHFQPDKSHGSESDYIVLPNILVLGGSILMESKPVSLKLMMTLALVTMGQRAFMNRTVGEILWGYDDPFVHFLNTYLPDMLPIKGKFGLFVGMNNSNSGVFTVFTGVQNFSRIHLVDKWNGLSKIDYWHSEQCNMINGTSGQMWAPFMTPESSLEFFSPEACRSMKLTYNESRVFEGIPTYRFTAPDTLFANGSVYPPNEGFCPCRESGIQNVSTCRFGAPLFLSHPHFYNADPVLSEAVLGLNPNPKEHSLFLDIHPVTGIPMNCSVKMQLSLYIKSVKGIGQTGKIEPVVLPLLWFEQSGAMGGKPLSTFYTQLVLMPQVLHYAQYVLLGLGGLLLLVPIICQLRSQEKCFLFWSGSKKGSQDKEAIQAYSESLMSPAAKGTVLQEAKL

[8] = fungal growth arrest, C. neoformans – Alamar Blue, cherry-picks, dose response (AID 686998); assay type: functional, organism-based

T1 sequence (P07550 whole entry): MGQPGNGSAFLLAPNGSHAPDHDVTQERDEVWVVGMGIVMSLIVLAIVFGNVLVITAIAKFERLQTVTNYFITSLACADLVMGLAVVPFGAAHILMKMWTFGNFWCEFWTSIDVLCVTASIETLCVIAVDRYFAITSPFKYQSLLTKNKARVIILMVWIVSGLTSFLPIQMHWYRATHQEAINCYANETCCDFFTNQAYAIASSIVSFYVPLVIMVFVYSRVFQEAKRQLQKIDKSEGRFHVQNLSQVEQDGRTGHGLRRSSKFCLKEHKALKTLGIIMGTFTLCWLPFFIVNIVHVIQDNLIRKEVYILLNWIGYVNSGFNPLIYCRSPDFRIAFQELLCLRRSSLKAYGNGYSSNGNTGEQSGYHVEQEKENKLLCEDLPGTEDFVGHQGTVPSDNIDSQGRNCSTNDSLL

- EC50 [1]: 0.00643 µM (active)
- AC50 (Cytochrome P450 3A4): 2.82 µM (inconclusive)
- EC50 [2]: 0.22 µM (active)
- AC50 (Cytochrome P450 2C19): 14.1 µM (inconclusive)
SMILES: Cc1ccc(Cn2ccc(NC(=O)c3cc4nc(-c5ccco5)cc(C(F)(F)F)n4n3)n2)cc1

SMILES: COc1ccc(OC)c(-c2nnc3n2N=C(c2ccc(OC)c(OC)c2)CS3)c1
- AC50 (Vero): 23.2 µM (active)
- IC50 [3]: > 80 µM (inactive)
- AC50 (A549): 4.83 µM (active)

SMILES: CNC(=O)Cc1ccc(-c2ccccc2)cc1
- AC50 [4]: > 70 µM (inactive)

- IC50 [5]: 1.97 µM (active)
SMILES: O=C(COC(=O)c1ccc2c(c1)C(=O)N(c1cccc3ncccc13)C2=O)c1ccc(Cl)cc1

SMILES: C[C@@H]1CN([C@H](C)CO)C(=O)c2cc(NC(=O)Nc3ccc(F)cc3)ccc2O[C@H]1CN(C)S(=O)(=O)c1ccc(Cl)cc1
- AC50 [6]: > 70 µM (inactive)
- AC50 [7]: 0.113 µM (active)

SMILES: CCC(=O)N1CCCC1(C)C(=O)Nc1ccc(C)c(C)c1 (configuration not stated)
- AC50 [8]: 93.7 µM (active)
